Experimental data published in ChEMBL document CHEMBL2331468, “Antimalarial activities of 6-iodouridine and its prodrugs and potential for combination therapy” (J Med Chem, 2013).
pIC50: −log10 of the molar value. Calls of active or inactive are those of the source. The calls are words filed in the database; no cut-off is given here.

Legend:
Plasmodium falciparum [1] = test: Antimalarial activity against Plasmodium falciparum FCR3 after 72 hrs by lactate dehydrogenase assay; type: functional; conditions: FCR-3/Gambia
Plasmodium chabaudi [2] = test: Antimalarial activity against Plasmodium chabaudi chabaudi infected in mouse assessed as reduction in parasitemia at 7.1 mg/day administered as infusion on days 4 to 6; type: functional, organism-based
Plasmodium chabaudi [3] = test: Antimalarial activity against Plasmodium chabaudi chabaudi infected in mouse assessed as reduction in parasitemia at 6.9 mg/day administered as infusion on days 4 to 6; type: functional, organism-based
Plasmodium berghei [4] = test: Antimalarial activity against Plasmodium berghei infected in BALB/c mouse assessed as reduction in parasitemia at 3 mg/dose, ip on days 5 to 7; type: functional, organism-based
[5] = Therapeutic index, ratio of IC50 for CHO cells to IC50 for Plasmodium falciparum in absence of uridine; type: cell-based; conditions: hamster, CHO cells versus Plasmodium falciparum; read-out: Ratio IC50
Plasmodium falciparum [6] = test: Antimalarial activity against ring-stage Plasmodium falciparum assessed as decrease in viability at 4 uM incubated for 3 hrs followed by compound washout measured after 48 hrs by SYBR-Green staining-based fluorescence analysis relative to untreated control; type: functional, organism-based
Plasmodium berghei [7] = test: Antimalarial activity against Plasmodium berghei infected in BALB/c mouse assessed as reduction in parasitemia at 6 to 12 mg/dose, ip on days 5 to 7; type: functional, organism-based
Plasmodium chabaudi [8] = test: Antimalarial activity against Plasmodium chabaudi chabaudi infected in BALB/c mouse assessed as reduction in parasitemia at 6 mg/day administered as infusion on days 4 to 6 measured on days 10 to 13 in presence of uridine; type: functional, organism-based
Plasmodium falciparum [9] = test: Antimalarial activity against Plasmodium falciparum 3D7 after 72 hrs by lactate dehydrogenase assay; type: functional, organism-based; conditions: 3D7, 72 h
Plasmodium falciparum [10] = test: Antimalarial activity against Plasmodium falciparum after 72 hrs by lactate dehydrogenase assay in absence of uridine; type: functional, organism-based
Plasmodium falciparum [11] = test: Antimalarial activity against Plasmodium falciparum after 72 hrs by lactate dehydrogenase assay in presence of uridine; type: functional, organism-based
[12] = Selectivity index for Plasmodium falciparum over Plasmodium berghei in presence of uridine; type: functional
Plasmodium chabaudi [13] = test: Antimalarial activity against Plasmodium chabaudi chabaudi infected in ip dosed BALB/C mouse; type: functional, organism-based
Plasmodium berghei [14] = test: Antimalarial activity against Plasmodium berghei infected in BALB/c mouse assessed as reduction in parasitemia at 6 to 12 mg/dose, ip on days 5 to 7 in presence of uridine; type: functional, organism-based
CHO [15] = test: Cytotoxicity against CHO cells at 5 to 250 uM after 48 hrs by MTT assay in presence of uridine; type: cell-based, Cricetulus griseus; conditions: chinese hamster
Mus musculus [16] = test: Toxicity against BALB/c mouse infected with Plasmodium berghei assessed as loss in body weight at 6 mg/dose, ip in presence of uridine; type: organism-based; conditions: in vivo
Mus musculus [17] = test: Toxicity against BALB/c mouse infected with Plasmodium berghei assessed as loss in body weight at 3 mg/dose, ip in presence of uridine; type: organism-based; conditions: in vivo
Plasmodium berghei [18] = test: Antimalarial activity against Plasmodium berghei infected in BALB/c mouse assessed as reduction in parasitemia at 3 mg/dose, ip on days 5 to 7 in presence of uridine; type: functional, organism-based
Plasmodium berghei [19] = test: Antimalarial activity against Plasmodium berghei infected in ip dosed BALB/C mouse; type: functional, organism-based
Plasmodium falciparum [20] = test: Growth inhibition of Plasmodium falciparum at >250 uM after 72 hrs by lactate dehydrogenase assay in absence of uridine; type: functional, organism-based
Plasmodium berghei [21] = test: Antimalarial activity against Plasmodium berghei infected in mouse assessed as reduction of parasitemia at 50 ug/dose, ip on days 4 to 7; type: functional, organism-based
Plasmodium falciparum [22] = test: Antimalarial activity against chloroquine-resistant Plasmodium falciparum ItG after 72 hrs by lactate dehydrogenase assay; type: functional, organism-based
Plasmodium falciparum [23] = test: Antimalarial activity against chloroquine/mefloquine-resistant Plasmodium falciparum KC98358 after 72 hrs by lactate dehydrogenase assay; type: functional, organism-based; conditions: KC98358, 72 h
Plasmodium chabaudi [24] = test: Antimalarial activity against Plasmodium chabaudi chabaudi infected in mouse at 6 mg/day administered as infusion on days 4 to 6 relative to untreated control; type: functional, organism-based
Plasmodium falciparum [25] = test: Antimalarial activity against chloroquine/multidrug-resistant Plasmodium falciparum MB after 72 hrs by lactate dehydrogenase assay; type: functional, organism-based
[26] = Therapeutic index, ratio of IC50 for CHO cells to IC50 for Plasmodium falciparum in presence of uridine; type: cell-based; conditions: hamster, CHO cells versus Plasmodium falciparum; read-out: Ratio IC50
CHO [27] = test: Cytotoxicity against CHO cells assessed as growth inhibition after 48 hrs by MTT assay in absence of uridine; type: cell-based; conditions: Cricetulus griseus
Mus musculus [28] = test: Toxicity against BALB/c mouse infected with Plasmodium berghei assessed as loss in body weight at 12 mg/dose, ip in presence of uridine; type: organism-based; conditions: in vivo
Plasmodium falciparum [29] = test: Antimalarial activity against chloroquine/multidrug-resistant Plasmodium falciparum SB after 72 hrs by lactate dehydrogenase assay; type: functional, organism-based
Plasmodium falciparum [30] = test: Antimalarial activity against mature-stage Plasmodium falciparum assessed as decrease in viability at 4 uM incubated for 3 hrs followed by compound washout measured after 48 hrs by SYBR-Green staining-based fluorescence analysis relative to untreated control; type: functional, organism-based
Plasmodium chabaudi [31] = test: Antimalarial activity against Plasmodium chabaudi chabaudi infected in BALB/c mouse assessed as reduction in parasitemia at 6 mg/day administered as infusion on days 4 to 6 measured on days 10 to 13; type: functional, organism-based
[32] = Hemolytic activity against human erythrocytes at 250 uM; type: ADME, cell-based; conditions: erythrocyte
C32 = test: Cytotoxicity against human C32 cells after 48 hrs by MTT assay in presence of uridine; type: cell-based; conditions: c32, 48 h
Plasmodium falciparum [33] = test: Antimalarial activity against chloroquine/mefloquine-resistant Plasmodium falciparum KC98 after 72 hrs by lactate dehydrogenase assay; type: functional, organism-based; conditions: KC98, 72 h
Plasmodium berghei [34] = test: Antimalarial activity against Plasmodium berghei infected in mouse assessed as reduction of parasitemia at 8 mg/dose, ip on days 4 to 7 relative to untreated control; type: functional, organism-based

In the case of `CCC(=O)OC[C@H]1O[C@@H](n2c(I)cc(=O)[nH]c2=O)[C@H](O)[C@@H]1O`, the pIC50 (Plasmodium falciparum [1]) was 4.07 and the Activity (Plasmodium chabaudi [2]) was “inactive”.
For `CCCC(=O)OC[C@H]1O[C@@H](n2c(I)cc(=O)[nH]c2=O)[C@H](O)[C@@H]1O`, the pIC50 (Plasmodium falciparum [1]) was 3.78 and the Activity (Plasmodium chabaudi [3]) was “Active”.
In the case of `O=c1cc(I)n([C@@H]2O[C@H](CO)[C@@H](O)[C@H]2O)c(=O)[nH]1`, the Activity (Plasmodium berghei [4]) was “Active”, the pIC50 (Plasmodium falciparum [1]) was 4.25 and the selectivity ratio [5] was 38. For the same molecule, the Activity (Plasmodium falciparum [6]) was “Active”, the Activity (Plasmodium berghei [7]) was “Active” and the Activity (Plasmodium chabaudi [8]) was “Active”. For the same molecule, the pIC50 (Plasmodium falciparum [9]) was 4.57, the pIC50 (Plasmodium falciparum [10]) was 4.88 and the pIC50 (Plasmodium falciparum [11]) was 4.95. For the same molecule, the Selectivity Index [12] was 2, the pIC50 (Plasmodium chabaudi [13]) was 3.52 and the Activity (Plasmodium berghei [14]) was “Active”. The Activity (CHO [15]) was “Toxic”, the Activity (Mus musculus [16]) was “Toxic” and the Activity (Mus musculus [17]) was “Non-toxic”. For the same molecule, the Activity (Plasmodium berghei [18]) was “Active”, the pIC50 (Plasmodium berghei [19]) was 3.52 and the “growth inhibition (GI)” value (Plasmodium falciparum [20]) was “Active”. For the same molecule, the Activity (Plasmodium berghei [21]) was “Active”, the pIC50 (Plasmodium falciparum [22]) was 5.92 and the pIC50 (Plasmodium falciparum [23]) was 5.85. The Activity (Plasmodium chabaudi [24]) was “inactive”, the pIC50 (Plasmodium falciparum [25]) was 4.73 and the selectivity ratio [26] was 35. The pIC50 (CHO [27]) was 3.31, the Activity (Mus musculus [28]) was “Toxic” and the pIC50 (Plasmodium falciparum [29]) was 4.54. For the same molecule, the Activity (Plasmodium falciparum [30]) was “inactive”, the Activity (Plasmodium chabaudi [31]) was “inactive” and the Activity [32] was “Toxic”. For the same molecule, the Activity (C32) was “Non-toxic” and the pIC50 (Plasmodium falciparum [33]) was 5.64.
With `C[n+]1cnn(CCCCCCCCCCCCn2c[n+](C)cn2)c1` the Activity (Plasmodium berghei [19]) was “Active”.
In the case of `CC[C@H]1OC(=O)[C@H](C)[C@@H](O[C@H]2C[C@@](C)(OC)[C@@H](O)[C@H](C)O2)[C@H](C)[C@@H](O[C@@H]2O[C@H](C)C[C@H](N(C)C)[C@H]2O)[C@](C)(O)C[C@@H](C)CN(C)[C@H](C)[C@@H](O)[C@]1(C)O`, the Activity (Plasmodium berghei [34]) was “inactive”.
